Laboratory results: US10912819B2, “Neuroprotective peptides derived from activity-dependent neuroprotective protein for treatment of neurological diseases” (priority 2016, dated 2021)
Entries after “also recorded” stand apart in the source; their conditions may differ.

What was measured:
[1] = test system: Adnp^+/− mice; experiment: Object recognition test; format: in vivo
Description: Data are expressed as mean (±SEM) total time (sec) spent exploring all objects designated by relative discrimination index (a and b-exploration of familiar and novel object, respectively) in Phase 2 (A) and Phase 3 (B). Two identical objects were presented during Phase 1 (habituation), and one of the identical objects was replaced by a novel object during Phases 2 and 3. […] (C) 2-month-old mice (n=3-4 males or 6-8 females per experimental group) were treated daily, five times a week for 6 weeks with 0.5 μg NAP/mouse/day by intranasal administration in DD=7.5 mg/ml of NaCl, 1.7 mg/ml of citric acid monohydrate, 3 mg/ml of disodium phosphate dihydrate, and 0.2 mg/ml of 50% benzalkonium chloride solution. Animal performance in the object recognition test after four week treatment is shown. Data are expressed as mean (±SEM) as above, in the long retention choice phase (24 hours after habituation).
(§1) Experiments performed as we described in Malishkevich et al., 2015 (37) and Amram et al., Mol Psychiatry. 2016 October; 21(10):1467-76 (7). 3-6 month-old male mice were used, drug application (0.5 μg/5 μl/mouse) was once daily, for one month and then behavioral assays were initiated together with drug application. In experiments with the vehicle termed DD (NAP-benzalkonium), drug application was at 2 months of age and continued as above. Open field experiments (16, 17) and elevated plus maze evaluations (18) were carried out as before.
Animal performance in the object recognition memory test is shown. Two identical objects were presented during the habituation phase, and one of the identical objects was replaced by a novel object during the short retention choice phase (3 hours) and the long retention choice phase (24 hours).

[2] = test system: Adnp^+/− mice; experiment: Social memory test; format: in vivo
Description: FIG. 3. NAP treatment increases social memory. Animal performance is shown. (A, animals were as in FIG. 2A,B; n=9-12 per group). Data are expressed as mean±SEM total time (sec) spent exploring mice designated by relative discrimination index (D2=(b−a)/(a+b); b=time sniffing novel mouse, a=time sniffing familiar mouse). An empty wire cup and a cup containing target mouse (“familiar”) were placed in the center of the right or left chamber. After 3 hours, a novel mouse was put inside the empty cup, while the other cup contained the familiar mouse. The Adnp^+/− mice spent less time in exploring the novel mouse, as compared to Adnp^+/+ mice.
as §1

[3] = test system: Adnp^+/+ and Adnp^+/− male mice; experiment: Open field test; format: in vivo; conditions: 15 min
Description: FIG. 5. […] Furthermore, NAP ameliorates motor dysfunction in Adnp^+/− mice. Each male mouse (n=9-12 per group) was placed in the middle of the field and allowed to freely explore the arena for 15 min. The duration in center zone (A), and the total path traveled (B) were measured by the Ethovision XT video tracking system (Noldus Inc. Leesburg, Va.).
as §1

[4] = test system: Adnp^+/− mice; experiment: MRI diffusion tensor imaging of chronically treated brains; format: in vivo; conditions: NAP in CB vs CB-treated Adnp^+/− mice
Description: MRI was performed on a 7.0 T/30 spectrometer (Bruker, Rheinstetten, Germany) using a volume coil for excitation and a rat quadrature coil for acquisition. The MRI protocols included coronal T2 and diffusion tensor imaging (DTI). T2 weighted images obtained with RARE sequence, with repetition time=3000 msec and echo time=49 msec, RARE factor 8, 4 averages, field of view of 2×2 cm, matrix dimensions of 256×256 and 24 slices of 0.5 mm thickness with no gap. The 24 coronal sections were used for volumetric analysis of the whole brain, Lateral ventricle and Hippocampus. DTI was obtained using a diffusion-weighted (DW) spin-echo echo-planar-imaging (EPI) pulse sequence with the following parameters: TR/TE=4000/25 ms, Δ/δ=10/4.5 ms, 4 EPI segments and 32 non-collinear gradient directions with a single b value (1000 sec/mm^2) and two images with b value of 0 sec/mm2 (referred to as b0). Geometrical parameters were: 24 slices of 0.5 mm thickness, matrix size of 128×128 and FOV of 20 mm^2). The imaging protocol was repeated 3 times for signal averaging and to compensate for acquisition where significant head motion was observed. Image analysis included DTI analysis of the DW-EPI images to produce the FA, radial, and axial diffusivity indexed maps.

[5] = test system: Akap6; experiment: Akap6 tongue gene expression, quantitative real-time PCR; format: in vivo, mice
Description: Tongue total RNA was extracted from 4-month-old mice (treated with NAP/DD as above) and analyzed for Akap6, Hprt, and Gapdh mRNA expression by quantitative real-time PCR (n=6-14 replicates per experimental group). HPRT and Gapdh served as normalizing transcripts.
Quantitative reverse transcription real time polymerase chain reaction (RT-PCR) was performed as before (18, 37).

[6] = test system: Adnp^+/− mouse pups; experiment: Ultrasonic vocalization (USV) of pups after dam separation; format: in vivo, mice
Description: Furthermore, Auditory brain response (ABR) of 2.5 months old mice presents prolonged latency of hearing in Adnp+/− vs. Adnp+/+ females. (A) Results are presented as means±SEM. Ultrasonic vocalizations (USVs) were recorded in eight-day-old pups, subjected to daily subcutaneous injections of NAP (25 μg/ml saline) or saline (20 μl and 40 μl on postnatal days 1-4 and 5-7). The recordings were performed following dam separation according to published literature (Shu, W., et al. 2005. Proc Nati Acad Sci USA 102:9643-9648) NAP was injected as described before (Rotstein, M., et al., 2006. J Pharmacol Exp Ther 319:332-339).
Language and speech deficits affect ADNP-mutated children (38, 39) and autistic children in general (51). In rodents, both speech and social communication are tested by analysis of isolation induced ultrasonic vocalizations (USVs) (52). As part of USV test, 25 μg of NAP were diluted in 1 ml saline and injected (subcutaneous) to Adnp^+/− mouse pups for 9 subsequent days (1-9 days of age) in doses of 20, 40 μl on days 1-4, 5-7 respectively (50).

[7] = test system: individuals suffering from progressive supranuclear palsy (PSP); conditions: 30 mg twice daily, changed formulation; cited from earlier work
[8] = 5-month-old mice, 0.5 μg NAP/mouse/day intranasal in CB, 8 weeks, NAP vs vehicle p<0.05
[9] = tongue, 4-month-old mice, NAP/DD, p<0.05

CC[C@H](C)[C@H](NC(=O)[C@H](CO)NC(=O)[C@@H](NC(=O)[C@@H]1CCCN1C(=O)[C@H](C)NC(=O)[C@@H](N)CC(N)=O)C(C)C)C(=O)N1CCC[C@H]1C(=O)N[C@@H](CCC(N)=O)C(=O)O [NAP]
relative discrimination index, long retention choice phase, females ([1]; 2-month-old mice, 0.5 μg NAP/mouse/day intranasal in DD, after four week treatment, p<0.05): normalizing the deficient female behavior | relative discrimination index, long retention choice phase, males ([1]; 2-month-old mice, 0.5 μg NAP/mouse/day intranasal in DD, n=3-4): only a trend | relative discrimination index, short retention phase ([1]; 2-month-old mice, NAP intranasal in DD): No differences were observed | relative discrimination index novel vs familiar object, short retention choice phase ([1]; 3 hours after habituation, male mice 6-9 months, NAP in CB intranasal, NAP-treated vs Adnp^+/− p<0.001): Significant differences | relative discrimination index novel vs familiar object, long retention choice phase ([1]; 24 hours after habituation, male mice 6-9 months, NAP in CB intranasal, NAP-treated vs Adnp^+/− p<0.001): Significant differences | social memory, females ([2]; 2-month-old mice, 0.5 μg NAP/mouse/day intranasal in DD, 7 weeks, NAP vs vehicle p<0.05): significant difference | social memory, females [2, 8]: significant difference | social memory, males [2, 8]: significant difference | social memory (relative discrimination index novel vs familiar mouse) ([2]; male mice 6-9 months, NAP in CB intranasal, FIG. 3A, NAP vs vehicle p<0.001): improved social memory | duration in center zone ([3]; male mice of both genotypes, NAP-treated vs vehicle-treated p<0.05): staying longer time at the center of the field | total path traveled (slight hyperactivity of Adnp^+/− mice) ([3]; male mice): not affecting the slight hyperactivity | hippocampal mean diffusivity (MD) ([4]; hippocampal area −1.84 mm from Bregma): although insignificantly, was reduced | hippocampal fractional anisotropy (FA) ([4]; hippocampal area −2.34 mm from Bregma, p<0.05): significantly reduced | dysregulated Akap6 expression in the tongue ([5]; FIG. 8 C,D): amelioration | Akap6 normalized to Gapdh: vehicle Adnp^+/− female mice compared to NAP-treated Adnp^+/− mice ([5]; tongue, 4-month-old mice, NAP/DD): significantly increased expression | Akap6 normalized to Gapdh: NAP-treated Adnp^+/− male mice compared to vehicle-treated [5, 9]: significantly increased | Akap6 normalized to Hprt: vehicle Adnp^+/− male mice compared to NAP-treated Adnp^+/− mice [5, 9]: significantly decreased | USV per minute, male and female groups combined ([6]; Adnp^+/− pups, NAP daily injections, FIG. 9C): protected against this deficiency; also recorded: most significant increase | USV per minute by sex ([6]; Adnp^+/− pups, NAP vs saline treated littermates, increased group size, FIG. 9B): normalizing it in females; also recorded: increased vocalization in both sexes | number of USVs produced in a minute, Adnp^+/− pups ([6]; eight-day-old pups, daily subcutaneous NAP (25 μg/ml saline) vs saline, p=0.005): significant increase; also recorded: amelioration | number of USVs produced in a minute, Adnp^+/+ pups ([6]; eight-day-old pups, daily subcutaneous NAP vs saline, p=0.73): no significant treatment effect | efficacy in PSP [7]: did not show efficacy
